Assay results: ChEMBL document CHEMBL5137135, “Highly Oxidized Germacranolides from Elephantopus tomentosus and the Configurational Revision of Some Previously Reported Analogues” (J Nat Prod, 2022)
Calls of active or inactive are those of the source. No cut-off for these calls is given here.

Tests used:
Format in all cases: functional, cell-based
Hep 3B2 [1] = assay: Cytotoxicity against human Hep3B cells assessed as inhibition of cell growth by MTT assay
HepG2 [2] = assay: Cytotoxicity against human HepG2 cells assessed as inhibition of cell growth by MTT assay
Hep 3B2 [3] = assay: Induction of apoptosis in human Hep3B cells assessed as cellular shrinkage at 1 to 4 uM after 48 hrs by phase contrast microscopic analysis; conditions: dose 1-4 µM
HepG2 [4] = assay: Induction of apoptosis in human HepG2 cells at 1 to 4 uM after 48 hrs by Hoechst 33258 staining based assay; conditions: dose 1-4 µM
HepG2 [5] = assay: Induction of mitochondrial membrane potential loss in human HepG2 cells by JC-1 staining based fluorescence assay
Hep 3B2 [6] = assay: Induction of mitochondrial membrane potential loss in human Hep3B cells by JC-1 staining based fluorescence assay
HepG2 [7] = assay: Induction of apoptosis in human HepG2 cells assessed as membrane blebbing at 1 to 4 uM after 48 hrs by phase contrast microscopic analysis; conditions: dose 1-4 µM
Hep 3B2 [8] = assay: Induction of apoptosis in human Hep3B cells at 1 to 4 uM after 48 hrs by Hoechst 33258 staining based assay; conditions: dose 1-4 µM
HepG2 [9] = assay: Induction of apoptosis in human HepG2 cells assessed as cellular shrinkage at 1 to 4 uM after 48 hrs by phase contrast microscopic analysis; conditions: dose 1-4 µM
Hep 3B2 [10] = assay: Induction of apoptosis in human Hep3B cells assessed as membrane blebbing at 1 to 4 uM after 48 hrs by phase contrast microscopic analysis; conditions: dose 1-4 µM

| SMILES | IC50 (Hep 3B2 [1]) [µM] | IC50 (HepG2 [2]) [µM] | other results |
| --- | --- | --- | --- |
| C=C1C[C@H](OC(=O)/C(C)=C/C)[C@H]2C(=C)C(=O)O[C@@H]2[C@@H]2O[C@](OC)(C=C2C)C1 | 8.5 | 3.8 | – |
| C=C1C[C@H](OC(=O)C(=C)C)[C@H]2C(=C)C(=O)O[C@@H]2[C@@H]2O[C@@](O)(C1)C[C@@]2(C)O | 6.6 | 7.3 | – |
| C=C1C(=O)O[C@H]2[C@H]1[C@@H](OC(=O)/C(C)=C/C)C/C(C)=C\[C@@]1(OC)C=C(C)[C@H]2O1 | 5 | 9.7 | – |
| C=C1C[C@H](OC(=O)C(=C)C)[C@H]2C(=C)C(=O)O[C@@H]2[C@@H]2O[C@](OC)(C=C2C)C1 | 2.4 | 2.2 | Activity (Hep 3B2 [3]): Active; Activity (HepG2 [4]): Active; Activity (HepG2 [5]): Active; Activity (Hep 3B2 [6]): Active; Activity (HepG2 [7]): Active; Activity (Hep 3B2 [8]): Active; Activity (HepG2 [9]): Active; Activity (Hep 3B2 [10]): Active |
| C/C=C(\C)C(=O)O[C@H]1C/C(C)=C\[C@@]2(OC)C=C(C)[C@@H](O2)[C@H]2OC(=O)[C@@H](CO)[C@@H]21 | > 10 | > 10 | – |
| C=C1C[C@H](OC(=O)/C(C)=C/C)[C@H]2C(=C)C(=O)O[C@@H]2[C@@H]2O[C@@](O)(C1)C[C@@]2(C)O | 3.1 | 8.7 | – |
| C=C1C[C@H](OC(=O)/C(C)=C/C)[C@H]2C(=C)C(=O)O[C@@H]2[C@@H]2O[C@@](OC)(C1)C[C@@]2(C)O | 9.5 | 9.8 | – |
| C/C=C(/C)C(=O)O[C@H]1C/C(C)=C\[C@@]2(OC)C=C(C)[C@@H](O2)[C@H]2OC(=O)[C@@H](COC)[C@@H]21 | > 10 | > 10 | – |
| C=C1C(=O)O[C@H]2[C@H]1[C@@H](OC(=O)/C(C)=C/C)C/C(C)=C\[C@@]1(c3cccc(O)c3O)C=C(C)[C@H]2O1 | 5.8 | 4.5 | – |
| C=C1C[C@H](OC(=O)C(=C)C)[C@H]2C(=C)C(=O)O[C@@H]2[C@@H]2O[C@@](O)(C1)C[C@@]2(C)OC | 7.5 | 8.5 | – |
| C=C(C)C(=O)O[C@H]1C/C(C)=C\[C@@]2(c3cccc(O)c3O)C=C(C)[C@@H](O2)[C@H]2OC(=O)C(=C)[C@@H]21 | 5.6 | 4.3 | – |
| C=C(C)C(=O)O[C@H]1C/C(C)=C\[C@@]2(OC)C=C(C)[C@@H](O2)[C@H]2OC(=O)C(=C)[C@@H]21 | 8.5 | 3.8 | – |
| C=C1C[C@H](OC(=O)C(=C)C)[C@H]2C(=C)C(=O)O[C@@H]2[C@@H]2O[C@@](OC)(C1)C[C@@]2(C)O | 2.4 | 8.1 | – |
| C=C1C(=O)O[C@H]2[C@H]1[C@@H](OC(=O)/C(C)=C\C)C/C(C)=C\[C@@]1(OC)C=C(C)[C@H]2O1 | 3.8 | 3.5 | – |
| C=C1C(=O)O[C@H]2[C@H]1[C@@H](OC(=O)/C(C)=C/C)C/C(C)=C\[C@@]1(c3ccc(O)c(O)c3)C=C(C)[C@H]2O1 | 3.6 | 3 | – |
| C=C(C)C(=O)O[C@H]1C/C(C)=C\[C@@]2(OC)C=C(C)[C@@H](O2)[C@H]2OC(=O)[C@@H](COC)[C@@H]21 | > 10 | > 10 | – |
| C=C(C)C(=O)O[C@H]1C/C(C)=C\[C@@]2(c3ccc(O)c(O)c3)C=C(C)[C@@H](O2)[C@H]2OC(=O)C(=C)[C@@H]21 | 3.7 | 5.7 | – |
